A short description of series [1]: Pharmacokinetics in rats after gastric intubation, blood levels by ELISA with rapamycin specific antibodies. As to conditions: Example 3; rapamycin given in formulations A and B, 10 mg per rat, oral.
Description: (§1) Formulation A is an emulsion preconcentrate and formulation B is a microemulsion preconcentrate. 6 male Wistar rats of mean body weight of 300 g are used per form. One day before treatment, food is withdrawn from the rats but the rats are permitted free access to water. The rats are then anesthetized by intraperitoneal injection of 2×1 ml 20% urethane and a permanent catheter is inserted into the right vena jugularis to permit blood sampling. 500 ml/animal of the formulation is administered by gastric intubation 20 hours after the surgery. A total dose of 10 mg of drug per animal is administered. Blood samples of 0.7 ml are taken from the jugular catheter of each animal 15 minutes before drug administration and then 0.17, 0.5, 1, 1.5, 2, 3, 5 and 8 hours after drug administration. The samples are kept in heparinized tubes and are analysed by means of ELISA using microtitre plates coated with rapamycin specific antibodies. The animals are killed immediately after taking the last blood sample.
The next series is described as follows: in vivo. As to conditions: male, Wistar, rat, whole blood, po, 10 mg.

Description for in vivo: as §1

Consider `CO[C@H]1C[C@@H]2CC[C@@H](C)[C@@](O)(O2)C(=O)C(=O)N2CCCC[C@H]2C(=O)O[C@H]([C@H](C)C[C@@H]2CC[C@@H](O)[C@H](OC)C2)CC(=O)[C@H](C)/C=C(\C)[C@@H](O)[C@@H](OC)C(=O)[C@H](C)C[C@H](C)/C=C/C=C/C=C/1C` [rapamycin, Rapamycin], for which the “absorption (result in words)” value in series [1] is given as “well absorbed”. In “in vivo”, the Cmax (in general, the peak of the concentration-time curve) was in the range of 2670 to 3400 ng/mL.
